Assay: gradient 5% acetonitrile 3 min, to 50% in 2 min, to 85% in 15 min, held 3 min, 100 µL/min
Conditions: column: Zorbax Extend-C18 2.1 x 50 mm; eluents: water / acetonitrile, 0.1% formic acid
Method in brief: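 Retention times come from adduct peaks that were picked computationally and then checked by hand. The standards, pure and pooled in mixtures of ~100 molecules, were run on a Zorbax Extend-C18 column (2.1 × 50 mm, 1.8 μm) at 100 μL/min with water and acetonitrile, each with 0.1% formic acid. Detection was by quadrupole time-of-flight mass spectrometry in positive and negative ionization mode, with a dead volume of 40 μL and a dwell volume of 900 μL.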

Structure (SMILES) | RP-LC retention time
O=C(Cn1nc2c3ccccc3ncn2c1=O)Nc1cccc(C(F)(F)F)c1 | 733 s
CC(C)Cn1c(=O)c(N2CCN(C(=O)CCCc3ccccc3)CC2)nc2ccncc21 | 742 s
COC(=O)c1scc(-c2ccccc2)c1S(=O)(=O)N1CCC(C(N)=O)(N2CCCCC2)CC1 | 662 s
O=C(C1CCCC1)N1CCN(Cc2nnnn2-c2ccccc2)CC1 | 712 s
COc1cccc(-c2nnc(N)o2)c1 | 674 s
CCOC(=O)C1CCN([C@H]2CS(=O)(=O)C[C@@H]2S(=O)(=O)c2ccccc2)CC1 | 826 s
c1cc2c(cc1-c1nnc(C3CC3)o1)OCO2 | 781 s
COc1ccc(Cl)cc1N1C=C(C#N)S(=O)(=O)c2ccccc21 | 918 s
CCCNC(=O)C1CCN(c2cnc(N3CCCCCC3)nc2)CC1 | 666 s
O=C(COc1cc(O)c2c(=O)c3ccccc3oc2c1)OCc1ccccc1 | 1220 s
CCN(CC)CCCNC(=O)CN1C(=O)CCn2nc(-c3cn(C)c4ccccc34)cc21 | 613 s
COc1ccc(N2C(=O)C3N=NN(Cc4nc(-c5ccc(C)cc5)no4)C3C2=O)cc1 (configuration not stated) | 992 s
Cc1cc(Cl)ccc1OCC(=O)Nc1nc(-c2ccc(F)cc2)cs1 | 1190 s
CCOc1ccccc1NC(=O)C1(C)Oc2cccnc2NC1=O (configuration not stated) | 776 s
Cc1csc(-c2cc(S(=O)(=O)N3CCOCC3)cn2CC(=O)N2CCCC2)n1 | 770 s
Oc1ccc2c3c1O[C@H]1c4oc5ccccc5c4C[C@@]4(O)[C@@H](C2)N(CC2CC2)CC[C@]314 | 673 s
COCCn1cc(CCNC(=O)Nc2ccc(C)c(F)c2)c2cccnc21 | 772 s
Cc1ccccc1CNS(=O)(=O)c1cc(-c2[nH]ncc2C(=O)N(C)C)oc1C | 701 s
Cc1ccsc1-c1nnc(CC(=O)N2CCN(C3CCCCC3)CC2)o1 | 616 s
CC[C@@H](c1cccc(O)c1)[C@@H](C)CN(C)C | 633 s
Cc1cc2[nH]c(C(=O)Nc3cc(F)c(F)c(F)c3)c(CN3CCOCC3)c2s1 | 737 s
Cc1cccc(N2CCN(c3ccc4nnc(CCc5nc(-c6ccc(F)cc6)no5)n4n3)CC2)c1 | 1130 s
CCN(CC)S(=O)(=O)c1ccc2c(c1)N(CC(=O)NCCC(C)C)C(=O)C1CCCCN21 (configuration not stated) | 991 s

Structure (SMILES) | RP-LC retention time
COc1ccc(OCc2nc(-c3cccc(-c4csc(C5CC5)n4)c3)no2)cc1 | 1300 s
COc1cccc(CN2C[C@@H]3C(=O)N(Cc4ccc5c(c4)OCO5)C(=O)[C@@H]3C2)c1OC | 704 s
O=C(Nc1cc(F)cc(F)c1)Nc1cccc(-c2ccc(N3CCOCC3)nn2)c1 | 748 s
COc1ccccc1NC(=O)c1cc2ccccc2cc1O | 1060 s
O=c1n(Cc2ccccc2)nc2c(S(=O)(=O)N3CCN(c4ccc(F)cc4)CC3)cccn12 | 973 s
CCN1C(=O)c2cc(S(=O)(=O)Nc3ccccc3F)ccc2Oc2cccnc21 | 924 s
CC1=C(c2ccccc2)S(=O)(=O)N=C1N1CCCN(C(=O)c2sccc2C)CC1 | 721 s
CC(C)C(=O)Oc1ccc(CO)cc1[C@H](CCN(C(C)C)C(C)C)c1ccccc1 | 830 s
Cc1csc(NC(=O)CSc2ccc(-c3cccnc3)nn2)n1 | 589 s
O=C(Nc1ccc(N2CCN(c3ccccc3)C2=O)nc1)c1ccc(F)c(F)c1 | 989 s
CN(C)c1ccc2c(c1)CN(C(=O)Cn1c(=O)oc3ccccc31)CCO2 | 621 s
CN(C)C(=O)c1ccc2c(c1)N(CC(=O)NCCCc1ccccc1)C(=O)CS2 | 726 s
CCn1ccc2c(cc(C(=O)Nc3ccc(C)c(Cl)c3)n2C)c1=O | 907 s
O=C(NC1CCCCC1N1C(=O)CSC1=O)c1ccc[nH]c1=O (configuration not stated) | 606 s
CCC(C)NC(=O)N1CCN(Cc2nc3cc(C(=O)N(C)C)ccc3o2)CC1 (configuration not stated) | 587 s
CNCCC(Oc1ccccc1C)c1ccccc1 (configuration not stated) | 778 s
O=S(=O)(c1ccc(-c2nnc(C3CCCC3)o2)o1)N1CCOCC1 | 834 s
Cc1cc(C)c(NC(=O)Cn2nc3cc(-c4ccccc4)nc(C)n3c2=O)c(C)c1 | 985 s
CS(=O)(=O)N1CCCc2cc(C(=O)N3CCC(C(N)=O)CC3)ccc21 | 604 s
Cc1cc(-c2nn3c(C4CCCCC4)nnc3s2)c2ccccc2n1 | 949 s
COc1cccc(NC(=O)c2c[nH]c3nc(C)ccc3c2=O)c1 | 791 s
O=C([C@@H]1C[C@H](F)CN1S(=O)(=O)c1ccccc1)N1CCOCC1 | 643 s

The next lines start with the values.

RP-LC retention time | Structure (SMILES)
724 s | CNS(=O)(=O)c1ccc(C(=O)N2CCc3ccccc3C2)o1
700 s | Cc1c(C2CCN(C(=O)NCCc3ccccc3)CC2)noc1N
636 s | COCCNC(=O)c1cc(C)nc2ccc(Br)cc12
627 s | CSc1cccc(NC(=O)Cc2csc(NC(=O)C3CCC(=O)N3)n2)c1 (configuration not stated)
666 s | Cc1oc2c(c1C(=O)NCc1ccc(F)c(F)c1)C1=NC(C)(C)CN1C=N2
981 s | CCOC(=O)c1cnc2c(-c3ccc(F)cc3)c(COC)nn2c1N
757 s | CCOc1ccc(C(=O)N2C[C@@H]3C[C@H]2C[C@@H]3NC(=O)c2ccccc2)cc1
972 s | Cc1cccc(C(=O)N2CCc3cc(CNS(=O)(=O)Cc4ccccc4)ccc32)c1
1130 s | O=C(Cn1nc(-c2ccccc2)c2cc(Cl)ccc21)NC1CCCC1
832 s | CC(C)CN1C(=O)c2cccn2CC1CNC(=O)C1(c2ccccc2)CC1 (configuration not stated)
963 s | COCc1nncn1C1CN(C(=O)Nc2ccc(Cl)cc2C(F)(F)F)C1
897 s | CCc1ccc(-n2nc(CO)c(C(=O)NC3CC3)n2)cc1
841 s | Cc1nc(-c2ccc3c(c2)n(CC(=O)NC2CCCCCC2)c(=O)n3C(C)C)no1
887 s | CCc1ccc(NC2CC(=O)N(c3ccc(OC)cc3OC)C2=O)cc1 (configuration not stated)
847 s | COC(=O)c1cccc(NC(=O)NC2CCN(c3ccc(C)c(C)c3)C2=O)c1 (configuration not stated)
610 s | O=C(NC1CC1)c1c2c(nc3ccc(F)cc13)CCCC2
700 s | COc1ccc(C(=O)CSc2nnc(NC(=O)CN(C)S(C)(=O)=O)s2)cc1
710 s | COc1c(C(=O)NCCN2CCCCC2C)sc2cc(Cl)ccc12 (configuration not stated)
590 s | Cc1noc(C)c1CN1CCC(NC(=O)c2ccc3c(c2)OCO3)CC1
733 s | CCOc1ccc(C(=O)NCc2c(C)noc2C)cc1
687 s | N#CCSc1nnc2n(CCC(=O)NC3CCCCC3)c(=O)c3ccccc3n12
726 s | Cc1cccc(OCC(=O)Nc2nnc(C3CC(=O)N(c4ccccc4)C3)o2)c1C (configuration not stated)

Reference: the METLIN SMRT retention time set (Domingo-Almenara et al. 2019)
